Measurements reported in ChEMBL document CHEMBL5149980, “The Alpha Keto Amide Moiety as a Privileged Motif in Medicinal Chemistry: Current Insights and Emerging Opportunities” (J Med Chem, 2021).
≈ marks a conversion by molar mass, not a printed value.

Legend:
[1] = molecular target: T1, Phospholipase A2, membrane associated (Homo sapiens, UniProt P14555); assay: Inhibition of human group IIA phospholipase A2 incubated for 30 mins by automatic plate reader analysis
T1 sequence (P14555 whole entry): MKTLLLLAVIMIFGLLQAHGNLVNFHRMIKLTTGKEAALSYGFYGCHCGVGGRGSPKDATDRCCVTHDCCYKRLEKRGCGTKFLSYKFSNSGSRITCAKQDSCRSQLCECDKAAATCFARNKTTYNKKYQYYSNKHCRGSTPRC

[2] = molecular target: T1, Phospholipase A2, membrane associated; assay: Inhibition of human group IIA phospholipase A2 preincubated with compound for 10 mins followed by enzyme addition and measured after 30 mins by PC/DOC assay
Translocator protein [3] = molecular target: Translocator protein (Rattus norvegicus, UniProt P16257); assay: Displacement of [3H]-PK11195 from rat kidney mitochondrial membrane TSPO receptor assessed as inhibition constant; format: cell membranes
Sequence of Translocator protein (Rattus norvegicus, UniProt P16257) (P16257 whole entry, looked up): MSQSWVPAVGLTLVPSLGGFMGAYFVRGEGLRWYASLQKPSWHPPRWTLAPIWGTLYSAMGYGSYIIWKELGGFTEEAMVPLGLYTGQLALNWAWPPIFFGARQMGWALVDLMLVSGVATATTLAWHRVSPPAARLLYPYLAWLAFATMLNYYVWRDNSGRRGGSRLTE

[4] = molecular target: Translocator protein (Rattus norvegicus) (UniProt P16257); assay: Activation of TSPO in rat C6 glioma cells assessed as increase in pregnenolone incubated for 2 hrs by radioimmuno assay; format: cell-based; parameters: concentration or dose not given beside the values; details: filed as activator
Sequence of Translocator protein (Rattus norvegicus) (P16257 whole entry, looked up): as above

[5] = molecular target: Calpain-1 catalytic subunit (Homo sapiens, UniProt P07384); assay: Inhibition of human Calpain I assessed as dissociation constant using Suc-Leu-Tyr-AMC as substrate preincubated for 15 mins followed by compound addition and measured after 40 mins by […]
Sequence of Calpain-1 catalytic subunit (P07384 whole entry): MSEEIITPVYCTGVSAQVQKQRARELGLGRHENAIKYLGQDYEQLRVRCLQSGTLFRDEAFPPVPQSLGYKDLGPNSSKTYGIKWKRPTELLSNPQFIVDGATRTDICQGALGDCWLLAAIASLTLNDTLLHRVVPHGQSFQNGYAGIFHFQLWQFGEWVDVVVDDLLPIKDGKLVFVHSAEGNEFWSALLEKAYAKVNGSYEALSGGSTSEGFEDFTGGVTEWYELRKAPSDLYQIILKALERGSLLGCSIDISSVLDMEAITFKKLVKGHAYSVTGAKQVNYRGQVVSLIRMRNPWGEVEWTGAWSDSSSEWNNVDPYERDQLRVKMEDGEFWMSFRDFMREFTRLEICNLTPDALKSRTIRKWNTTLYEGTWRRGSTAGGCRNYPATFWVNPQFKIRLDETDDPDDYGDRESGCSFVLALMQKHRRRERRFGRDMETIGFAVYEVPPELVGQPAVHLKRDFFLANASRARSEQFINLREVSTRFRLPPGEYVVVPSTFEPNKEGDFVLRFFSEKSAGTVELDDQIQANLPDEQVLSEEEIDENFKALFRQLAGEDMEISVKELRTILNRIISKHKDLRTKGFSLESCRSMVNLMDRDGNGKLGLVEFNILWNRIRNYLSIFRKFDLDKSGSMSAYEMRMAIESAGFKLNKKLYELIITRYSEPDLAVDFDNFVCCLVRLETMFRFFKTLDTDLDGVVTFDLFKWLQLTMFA

Cathepsin B = Cathepsin B (Homo sapiens, UniProt P07858); assay: Inhibition of human Cathepsin B assessed as inhibition constant
Cathepsin K = Cathepsin K (Homo sapiens, UniProt P43235); assay: Inhibition of human Cathepsin K assessed as inhibition constant
Sequence of Cathepsin K (P43235 whole entry): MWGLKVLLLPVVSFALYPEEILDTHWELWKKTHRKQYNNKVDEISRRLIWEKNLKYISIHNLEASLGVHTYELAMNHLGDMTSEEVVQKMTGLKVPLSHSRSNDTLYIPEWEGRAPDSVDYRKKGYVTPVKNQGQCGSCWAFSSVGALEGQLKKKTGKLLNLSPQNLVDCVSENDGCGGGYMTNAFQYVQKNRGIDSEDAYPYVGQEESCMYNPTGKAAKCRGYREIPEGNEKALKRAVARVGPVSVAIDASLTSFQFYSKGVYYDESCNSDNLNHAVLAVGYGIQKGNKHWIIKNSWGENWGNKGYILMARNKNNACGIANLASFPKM

Procathepsin L = Procathepsin L (Homo sapiens, UniProt P07711); assay: Inhibition of human Cathepsin L assessed as inhibition constant
Sequence of Procathepsin L (P07711 whole entry): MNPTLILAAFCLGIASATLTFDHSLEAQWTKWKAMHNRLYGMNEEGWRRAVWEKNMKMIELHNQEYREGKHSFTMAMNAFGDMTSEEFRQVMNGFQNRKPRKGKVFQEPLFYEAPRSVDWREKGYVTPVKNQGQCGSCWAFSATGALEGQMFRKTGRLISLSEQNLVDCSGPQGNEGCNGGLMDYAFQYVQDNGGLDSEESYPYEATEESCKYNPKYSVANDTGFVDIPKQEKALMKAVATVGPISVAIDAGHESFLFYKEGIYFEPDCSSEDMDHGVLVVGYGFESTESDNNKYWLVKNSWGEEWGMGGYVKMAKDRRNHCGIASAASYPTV

Cathepsin S = Cathepsin S (Homo sapiens, UniProt P25774); assay: Inhibition of human Cathepsin S assessed as inhibition constant
Sequence of Cathepsin S (P25774 whole entry): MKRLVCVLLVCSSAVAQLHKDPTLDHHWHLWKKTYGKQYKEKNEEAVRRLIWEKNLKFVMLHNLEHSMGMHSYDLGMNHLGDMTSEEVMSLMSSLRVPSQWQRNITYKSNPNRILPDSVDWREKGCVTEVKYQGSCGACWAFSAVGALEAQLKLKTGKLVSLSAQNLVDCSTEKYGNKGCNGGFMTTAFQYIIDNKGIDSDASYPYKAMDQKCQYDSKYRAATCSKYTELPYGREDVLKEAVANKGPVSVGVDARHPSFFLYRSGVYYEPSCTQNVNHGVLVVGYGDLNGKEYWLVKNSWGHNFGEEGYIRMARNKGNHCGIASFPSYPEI

[6] = molecular target: Dipeptidyl peptidase 1 (Homo sapiens) (UniProt P53634); assay: Inhibition of human Cathepsin C assessed as inhibition constant at 10 uM relative to control
Sequence of Dipeptidyl peptidase 1 (Homo sapiens) (P53634 25-134 limits assumed): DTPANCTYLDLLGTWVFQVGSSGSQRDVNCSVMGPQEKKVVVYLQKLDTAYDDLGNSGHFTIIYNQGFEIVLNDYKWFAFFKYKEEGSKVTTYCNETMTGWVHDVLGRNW
Sequence of Dipeptidyl peptidase 1 (Homo sapiens) (P53634 231-394 limits assumed): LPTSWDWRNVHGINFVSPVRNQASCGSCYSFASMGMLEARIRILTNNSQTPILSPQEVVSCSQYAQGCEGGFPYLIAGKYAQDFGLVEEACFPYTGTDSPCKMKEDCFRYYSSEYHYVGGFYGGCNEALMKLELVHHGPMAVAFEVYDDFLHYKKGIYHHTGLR
Sequence of Dipeptidyl peptidase 1 (Homo sapiens) (P53634 395-463 limits assumed): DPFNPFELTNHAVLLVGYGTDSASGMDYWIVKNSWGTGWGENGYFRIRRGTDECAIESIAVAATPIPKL

Homo sapiens = organism: Homo sapiens; assay: Inhibition of human Cathepsin H assessed as inhibition constant at 10 uM relative to control
Staphylococcus aureus [7] = assay: Antibacterial activity against Staphylococcus aureus assessed as bacterial growth inhibition incubated for 24 hrs by microplate reader analysis; format: functional
Translocator protein [8] = molecular target: T2, Translocator protein (Homo sapiens, UniProt P30536); assay: Displacement of [3H] PK11195 from TSPO (unknown origin) assessed as inhibition constant
T2 sequence (P30536 whole entry): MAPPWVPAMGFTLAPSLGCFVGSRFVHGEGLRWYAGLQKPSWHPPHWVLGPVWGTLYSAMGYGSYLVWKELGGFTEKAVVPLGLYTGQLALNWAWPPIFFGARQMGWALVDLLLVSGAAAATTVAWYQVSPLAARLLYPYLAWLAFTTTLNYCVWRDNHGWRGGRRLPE

Bacillus cereus = assay: Antibacterial activity against Bacillus cereus assessed as bacterial growth inhibition by microdilution analysis; format: functional
Staphylococcus aureus [9] = assay: Antibacterial activity against Staphylococcus aureus assessed as bacterial growth inhibition by microdilution analysis; format: functional
Escherichia coli [10] = assay: Antibacterial activity against Escherichia coli assessed as bacterial growth inhibition by microdilution analysis; format: functional
Pseudomonas putida = assay: Antibacterial activity against Pseudomonas putida assessed as bacterial growth inhibition by microdilution analysis; format: functional
[11] = molecular target: Replicase polyprotein 1ab (Severe acute respiratory syndrome coronavirus 2, UniProt P0DTD1); assay: Inhibition of SARS-Cov-2 Main protease
[12] = Inhibition of SARS-CoV Main protease; parameters: species or system Severe acute respiratory syndrome-related coronavirus
[13] = Inhibition of MERS-CoV Main protease; parameters: species or system Middle East respiratory syndrome-related coronavirus
[14] = molecular target: GABA-A receptor; alpha-1/beta-2/gamma-2 (Homo sapiens) (UniProt P14867+P47870+P18507); assay: Inhibition of alpha1beta2gamma2 GABAA receptor (unknown origin) relative to control; format: protein-complex assay
[15] = molecular target: GABA A receptor alpha-2/beta-2/gamma-2 (Homo sapiens) (UniProt P47870+P18507+P47869); assay: Inhibition of alpha2beta2gamma2 GABAA receptor (unknown origin) relative to control; format: protein-complex assay
[16] = molecular target: GABA-A receptor; alpha-5/beta-3/gamma-2 (Homo sapiens) (UniProt P18507+P28472+P31644); assay: Inhibition of alpha5beta3gamma2 GABAA receptor (unknown origin) relative to control; format: protein-complex assay
[17] = molecular target: Group IIE secretory phospholipase A2 (Homo sapiens, UniProt Q9NZK7); assay: Inhibition of human group IIE phospholipase A2 expressed in Escherichia coli BL21 cells incubated for 10 to 20 mins cells by radiometric assay
Sequence of Group IIE secretory phospholipase A2 (Homo sapiens, UniProt Q9NZK7) (Q9NZK7 whole entry): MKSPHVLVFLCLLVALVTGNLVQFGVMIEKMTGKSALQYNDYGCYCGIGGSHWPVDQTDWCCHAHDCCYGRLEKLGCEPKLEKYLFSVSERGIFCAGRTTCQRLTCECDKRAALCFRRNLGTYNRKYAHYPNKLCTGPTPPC

Phospholipase A2 group V [18] = molecular target: Phospholipase A2 group V (Homo sapiens, UniProt P39877); assay: Inhibition of human group V phospholipase A2 expressed in Escherichia coli BL21(DE3) cells incubated for 10 to 20 mins cells by radiometric assay
Sequence of Phospholipase A2 group V (Homo sapiens, UniProt P39877) (P39877 whole entry): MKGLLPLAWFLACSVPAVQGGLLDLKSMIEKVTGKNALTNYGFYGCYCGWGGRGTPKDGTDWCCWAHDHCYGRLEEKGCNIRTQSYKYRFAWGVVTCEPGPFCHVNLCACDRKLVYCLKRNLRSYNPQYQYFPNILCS

Phospholipase A2 [19] = molecular target: Phospholipase A2 (Homo sapiens, UniProt P04054); assay: Inhibition of human group IB phospholipase A2 expressed in Escherichia coli BL21 cells incubated for 10 to 20 mins cells by radiometric assay
Sequence of Phospholipase A2 (Homo sapiens, UniProt P04054) (P04054 whole entry): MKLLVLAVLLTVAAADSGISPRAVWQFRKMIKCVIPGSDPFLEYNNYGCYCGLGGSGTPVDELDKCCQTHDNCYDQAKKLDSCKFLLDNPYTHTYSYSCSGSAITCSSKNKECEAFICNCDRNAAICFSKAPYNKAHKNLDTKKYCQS

[20] = molecular target: Phospholipase A2, membrane associated (Mus musculus, UniProt P31482); assay: Inhibition of mouse group IIA phospholipase A2 incubated for 10 to 20 mins cells by radiometric assay
Sequence of Phospholipase A2, membrane associated (Mus musculus, UniProt P31482) (P31482 whole entry): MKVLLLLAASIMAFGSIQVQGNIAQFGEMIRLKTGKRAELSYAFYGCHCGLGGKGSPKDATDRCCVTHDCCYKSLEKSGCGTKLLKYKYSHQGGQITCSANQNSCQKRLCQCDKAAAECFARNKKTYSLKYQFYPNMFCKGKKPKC

[21] = molecular target: T1, Phospholipase A2, membrane associated; assay: Inhibition of human group IIA phospholipase A2 incubated for 10 to 20 mins cells by radiometric assay
[22] = molecular target: Group IIC secretory phospholipase A2 (Mus musculus, UniProt P48076); assay: Inhibition of mouse group IIC phospholipase A2 incubated for 10 to 20 mins cells by radiometric assay
Sequence of Group IIC secretory phospholipase A2 (P48076 whole entry): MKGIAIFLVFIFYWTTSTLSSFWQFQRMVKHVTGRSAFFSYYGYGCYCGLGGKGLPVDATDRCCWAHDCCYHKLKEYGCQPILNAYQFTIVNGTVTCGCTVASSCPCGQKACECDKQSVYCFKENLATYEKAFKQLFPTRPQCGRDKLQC

[23] = molecular target: Group IIE secretory phospholipase A2 (Mus musculus, UniProt Q9QUL3); assay: Inhibition of mouse group IIE phospholipase A2 incubated for 10 to 20 mins cells by radiometric assay
Sequence of Group IIE secretory phospholipase A2 (Mus musculus, UniProt Q9QUL3) (Q9QUL3 whole entry): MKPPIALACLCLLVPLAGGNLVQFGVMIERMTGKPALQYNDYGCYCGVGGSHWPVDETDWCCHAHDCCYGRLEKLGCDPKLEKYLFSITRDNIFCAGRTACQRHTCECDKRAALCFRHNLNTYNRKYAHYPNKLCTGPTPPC

Phospholipase A2 group V [24] = molecular target: Phospholipase A2 group V (Mus musculus, UniProt P97391); assay: Inhibition of mouse group V phospholipase A2 incubated for 10 to 20 mins cells by radiometric assay
Sequence of Phospholipase A2 group V (Mus musculus, UniProt P97391) (P97391 whole entry): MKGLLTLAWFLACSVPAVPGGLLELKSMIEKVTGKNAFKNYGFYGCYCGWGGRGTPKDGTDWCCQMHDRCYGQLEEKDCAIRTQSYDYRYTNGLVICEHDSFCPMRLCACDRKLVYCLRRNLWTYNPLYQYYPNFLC

Phospholipase A2 [25] = molecular target: Phospholipase A2 (Mus musculus, UniProt Q9Z0Y2); assay: Inhibition of mouse group IB phospholipase A2 incubated for 10 to 20 mins cells by radiometric assay
Sequence of Phospholipase A2 (Mus musculus, UniProt Q9Z0Y2) (Q9Z0Y2 whole entry): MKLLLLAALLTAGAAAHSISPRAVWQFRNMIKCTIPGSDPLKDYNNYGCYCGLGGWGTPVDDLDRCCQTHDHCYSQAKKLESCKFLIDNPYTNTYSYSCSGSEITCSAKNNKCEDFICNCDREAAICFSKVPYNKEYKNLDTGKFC

[26] = molecular target: Group 10 secretory phospholipase A2 (Mus musculus, UniProt Q9QXX3); assay: Inhibition of mouse group X phospholipase A2 incubated for 10 to 20 mins cells by radiometric assay
Sequence of Group 10 secretory phospholipase A2 (Mus musculus, UniProt Q9QXX3) (Q9QXX3 whole entry): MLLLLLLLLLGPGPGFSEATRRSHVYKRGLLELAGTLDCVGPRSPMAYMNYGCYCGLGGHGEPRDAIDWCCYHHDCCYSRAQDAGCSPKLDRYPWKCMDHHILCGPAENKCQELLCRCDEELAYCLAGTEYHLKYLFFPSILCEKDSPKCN

[27] = molecular target: Group 10 secretory phospholipase A2 (Homo sapiens, UniProt O15496); assay: Inhibition of human group X phospholipase A2 incubated for 10 to 20 mins cells by radiometric assay
Sequence of Group 10 secretory phospholipase A2 (Homo sapiens, UniProt O15496) (O15496 whole entry): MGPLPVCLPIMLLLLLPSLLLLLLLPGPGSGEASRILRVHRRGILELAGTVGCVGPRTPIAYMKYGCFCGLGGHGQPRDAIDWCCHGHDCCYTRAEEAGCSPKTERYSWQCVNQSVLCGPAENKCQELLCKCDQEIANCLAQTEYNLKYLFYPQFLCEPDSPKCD

Pseudomonas aeruginosa = assay: Inhibition of quorum sensing system in Pseudomonas aeruginosa MH602 assessed as GFP level incubated for 15 hrs at 250 uM by microplate titre analysis relative to control; format: functional
Escherichia coli [28] = assay: Inhibition of quorum sensing system in Escherichia coli MT102 assessed as GFP level incubated for 22 hrs at 250 uM by microplate titre analysis relative to control; format: functional
SARS-CoV-2 = assay: Antiviral activity against SARS-CoV-2 infected in human Calu-3 cells; format: functional, organism-based; details: Severe acute respiratory syndrome coronavirus 2, Calu-3
Staphylococcus aureus [29] = assay: Antibacterial activity against Staphylococcus aureus SA38 infected in MRC5 assessed as bacterial growth inhibition by alamar blue assay; format: functional
Translocator protein [30] = molecular target: T2, Translocator protein; assay: Displacement of [3H] PK11195 from TSPO in human U-87 MGcell membrane assessed as inhibition constant; format: cell membranes, U-87 MG

## Cc1c(C(=O)C(N)=O)c2c(OCn3cnnn3)cccn2c1Cc1ccccc1-c1ccccc1
[1]
  IC50: 0.007 µM
[2]
  IC50: 0.007 µM

## CCCN(CCC)C(=O)C(=O)c1c(-c2ccccc2)[nH]c2ccc(C)cc12
Translocator protein [3]
  Ki: 0.0055 µM
[4]
  Activity: 148%

## CN1C(=O)CN=C(c2ccc(Cl)cc2)c2cc(Cl)ccc21
[4]
  Activity: 41%

## CCN(CC)c1ccc(/C=C/c2ccccc2C(=O)NC(Cc2ccccc2)C(=O)C(N)=O)cc1 (stereo not given)
[5]
  Ki: 0.056 µM
Cathepsin B
  Ki: 0.028 µM
Cathepsin K
  Ki: 0.0018 µM
Procathepsin L
  Ki: 0.137 µM
Cathepsin S
  Ki: 3.29 µM
[6]
  inhibition: 94%
Homo sapiens
  inhibition: 84%

## CCCCN(CCCC)C(=O)C(=O)c1c(-c2ccc(Cl)cc2)[nH]c2ccc(Cl)cc12
[4]
  Activity: 147%

## C[N+](C)(C)CCCNC(=O)C(=O)c1cc(Br)ccc1NC(=O)c1ccc2ccccc2c1.[I-]
Staphylococcus aureus [7]
  MIC: 39 mg/L

## CCOC(=O)[C@@H](Cc1ccccc1)NC(=O)[C@H](CC(C)C)NC(=O)C(=O)c1c(-c2ccccc2)[nH]c2ccccc12
Translocator protein [8]
  Ki: 0.438 µM

## O=C(Nc1ccc(F)cc1)C(=O)c1ccc2c(c1)c1ccccc1n2Cc1ccc(Cl)cc1
Bacillus cereus
  MIC: 16 mg/L
Staphylococcus aureus [9]
  MIC: > 8 mg/L
Escherichia coli [10]
  MIC: 8 mg/L
Pseudomonas putida
  MIC: 16 mg/L

## CC(C)(C)OC(=O)Nc1cccn([C@@H](CC2CCCCC2)C(=O)N[C@@H](C[C@@H]2CCNC2=O)C(=O)C(=O)NCc2ccccc2)c1=O
[11]
  IC50: 2.39 µM

## CC(C)(C)OC(=O)Nc1cccn([C@@H](CC2CC2)C(=O)N[C@@H](C[C@@H]2CCNC2=O)C(=O)C(=O)NCc2ccccc2)c1=O
[12]
  IC50: 0.9 µM
[13]
  IC50: 0.58 µM

## CCCCCCN(CCCCCC)C(=O)C(=O)c1c(-c2ccc(Cl)cc2)[nH]c2ccc(Cl)cc12
[4]
  Activity: 166%

## O=C(NCc1ccccc1)C(=O)c1c[nH]c2ccc([N+](=O)[O-])cc12
[14]
  inhibition: 65%
[15]
  inhibition: 32%
[16]
  inhibition: 44%

## CCc1c(CC(N)=O)c2c(OCC(=O)O)cccn2c1Cc1cccc2ccccc12
[1]
  IC50: 0.03 µM
[2]
  IC50: 0.005 µM

## Cc1c(C(=O)C(N)=O)c2c(OCC(=O)O)cccn2c1Cc1ccccc1-c1ccccc1
[2]
  IC50: 0.0014 µM
[17]
  IC50: 0.01 µM
Phospholipase A2 group V [18]
  IC50: 0.01 µM
Phospholipase A2 [19]
  IC50: 0.1 µM
[20]
  IC50: 0.01 µM
[21]
  IC50: 0.01 µM
[22]
  IC50: 0.01 µM
[23]
  IC50: 0.01 µM
Phospholipase A2 group V [24]
  IC50: 0.01 µM
Phospholipase A2 [25]
  IC50: 0.1 µM
[26]
  IC50: 0.1 µM
[27]
  IC50: 0.1 µM

## CCOC(=O)CNC(=O)C(=O)c1ccccc1Nc1ccc([N+](=O)[O-])cc1[N+](=O)[O-]
Pseudomonas aeruginosa
  inhibition: 48.7%
Escherichia coli [28]
  inhibition: 73.6%

## Nc1cccn([C@@H](CC2CC2)C(=O)N[C@@H](C[C@@H]2CCNC2=O)C(=O)C(=O)NCc2ccccc2)c1=O
SARS-CoV-2
  EC50: 4 µM

## CCCCCCCCCS(=O)(=O)Nc1ccc(Br)cc1C(=O)C(=O)NCCCNC(=N)N
Staphylococcus aureus [29]
  MIC: 12 µM (≈ 6.39 µg/mL)

## CCOC(=O)[C@@H](Cc1ccccc1)NC(=O)[C@H](CC(C)C)NC(=O)C(=O)c1c(-c2ccccc2)[nH]c2ccc(N=C=S)cc12
Translocator protein [30]
  Ki: 0.108 µM

## CCC(C)N(C)C(=O)c1cc2ccccc2c(-c2ccccc2Cl)n1 (stereo not given)
[4]
  Activity: 48%

## CCc1c(C(=O)C(N)=O)c2c(OCC(O)CC)cccn2c1Cc1cccc(Cl)c1 (stereo not given)
[1]
  IC50: 19 µM

## CC(C)C[C@H](NC(=O)C(=O)c1c(-c2ccccc2)[nH]c2ccccc12)C(=O)N[C@H](Cc1ccccc1)C(=O)O
Translocator protein [8]
  Ki: 0.202 µM

## C[N+](C)(C)CCCNC(=O)C(=O)c1cc(Br)ccc1NC(=O)c1ccc2ccccc2c1.[Cl-]
Staphylococcus aureus [7]
  MIC: 16 mg/L

## CCc1c(C(=O)C(=O)NC)c2c(OCC(=O)O)cccn2c1Cc1ccccc1
[1]
  IC50: > 50 µM
